The values that follow come from ChEMBL document CHEMBL4130413, “1-Aryl-1H- and 2-aryl-2H-1,2,3-triazole derivatives blockade P2X7 receptor in vitro and inflammatory response in vivo” (Eur J Med Chem, 2017).

Series [1] relates to Mus musculus. As to the kind of experiment: Anti-inflammatory activity in Swiss mouse assessed as inhibition of LPS-induced pleural accumulation in total leucocytes at 100 mg/kg, ip pretreated for 1 hr followed by LPS stimulation and measured after 24 hrs by May-Grunwald-Giemsa staining-based Neubauer chamber based optical microscopy. In kind it is functional, organism-based.

In series [2] the test system is Mus musculus. As to the kind of experiment: Anti-inflammatory activity in Swiss mouse assessed as inhibition of LPS-induced nitric oxide production in pleural washes at 100 ng/kg, ip pretreated for 1 hr followed by LPS stimulation measured after 24 hrs by Lowry/Griess analysis. The series is classed as functional, organism-based. For orientation: Nitrite, measured by Griess reagent, commonly stands in for NO production.

Series [3] deals with Mus musculus. As to the kind of experiment: Anti-inflammatory activity in Swiss mouse assessed as inhibition of LPS-induced nitric oxide production in pleural washes at 100 mg/kg, ip pretreated for 1 hr followed by LPS stimulation and measured after 24 hrs by Lowry/Griess analysis. The series is classed as functional, organism-based.
The target of series [4] is T1, P2X purinoceptor 7 (Homo sapiens, UniProt Q99572).
T1 sequence (Q99572 whole entry): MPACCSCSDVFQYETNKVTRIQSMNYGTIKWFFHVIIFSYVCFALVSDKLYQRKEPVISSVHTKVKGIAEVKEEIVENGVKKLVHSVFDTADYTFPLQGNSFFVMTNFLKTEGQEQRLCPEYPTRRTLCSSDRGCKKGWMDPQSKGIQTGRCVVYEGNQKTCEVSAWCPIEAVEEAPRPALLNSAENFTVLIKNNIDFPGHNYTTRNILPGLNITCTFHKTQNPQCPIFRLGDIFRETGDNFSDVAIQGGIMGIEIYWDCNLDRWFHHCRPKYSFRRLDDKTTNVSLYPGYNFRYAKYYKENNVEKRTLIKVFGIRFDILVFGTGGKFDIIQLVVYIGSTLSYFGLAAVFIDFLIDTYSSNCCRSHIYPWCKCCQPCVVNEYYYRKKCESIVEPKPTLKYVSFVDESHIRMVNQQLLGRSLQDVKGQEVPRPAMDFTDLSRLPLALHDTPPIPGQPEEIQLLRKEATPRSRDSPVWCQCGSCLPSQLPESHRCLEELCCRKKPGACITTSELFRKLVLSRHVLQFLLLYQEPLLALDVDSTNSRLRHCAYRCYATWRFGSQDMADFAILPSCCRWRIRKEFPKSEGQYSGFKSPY
Description: Antagonist activity at human P2X7 receptor expressed in HEK293 cells assessed as inhibition of ATP-induced ethidium iodide uptake preincubated for 10 mins followed by ATP addition measured after 20 mins by spectrofluorometric analysis. In kind it is cell-based.

Series [5] addresses T2, P2X purinoceptor 7 (Mus musculus, UniProt Q9Z1M0).
T2 sequence (Q9Z1M0 whole entry): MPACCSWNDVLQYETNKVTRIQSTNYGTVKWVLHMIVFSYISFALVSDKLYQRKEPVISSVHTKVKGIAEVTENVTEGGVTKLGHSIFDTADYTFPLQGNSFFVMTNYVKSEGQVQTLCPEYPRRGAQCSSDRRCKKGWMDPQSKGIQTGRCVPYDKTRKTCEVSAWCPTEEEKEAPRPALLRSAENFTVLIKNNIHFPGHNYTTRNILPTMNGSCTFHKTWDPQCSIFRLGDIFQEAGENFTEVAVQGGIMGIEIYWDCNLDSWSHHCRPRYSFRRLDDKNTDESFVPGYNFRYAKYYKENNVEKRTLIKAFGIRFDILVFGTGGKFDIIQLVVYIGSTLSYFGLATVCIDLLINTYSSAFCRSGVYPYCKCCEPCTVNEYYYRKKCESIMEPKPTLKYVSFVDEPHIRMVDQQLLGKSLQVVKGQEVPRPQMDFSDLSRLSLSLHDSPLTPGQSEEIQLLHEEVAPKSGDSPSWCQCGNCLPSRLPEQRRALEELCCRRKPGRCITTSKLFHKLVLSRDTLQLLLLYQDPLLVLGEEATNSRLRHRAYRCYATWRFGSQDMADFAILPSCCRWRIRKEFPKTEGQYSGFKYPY
Description: Antagonist activity at P2X7 receptor in Swiss mouse peritoneal macrophages assessed as inhibition of BzATP-induced ethidium iodide uptake after 30 mins by spectrofluorometric analysis.

Series [6] can be described thus: Intrinsic clearance in mouse liver microsomes assessed per mg protein at 1 uM measured up to 45 mins. In kind it is ADME, microsome. To be noted: read-out: CLH.
The nature of series [7]: Apparent permeability across apical to basolateral side in human Caco2 cells at 100 uM after 60 mins by lucifer yellow dye-based fluorescence assay. In kind it is ADME, cell-based. The following applies: Caco-2. In general terms: Passage across Caco-2 layers is used to estimate intestinal permeability.
The nature of series [8]: Kinetic solubility in pH 2 hydrochloride buffer at 1 to 250 uM after 2 hrs. In kind it is physicochemical. To be noted: read-out: Kinetic_solubility.
Series [9] is described as follows: Kinetic solubility in pH 7.4 phosphate buffer at 1 to 250 uM after 2 hrs. The series is classed as physicochemical. The following applies: read-out: Kinetic_solubility.
A short description of series [10]: Kinetic solubility in pH 10 sodium hydroxide buffer at 1 to 250 uM after 2 hrs. In kind it is physicochemical. The following applies: read-out: Kinetic_solubility.
In series [11] the test system is Mus musculus. Description: Anti-inflammatory activity in po dosed Swiss Webster mouse assessed as inhibition of ATP-induced paw edema pretreated for 60 mins followed by ATP administration and measured after 30 mins. The series is classed as functional.
Series [12] relates to Mus musculus. Description: Anti-inflammatory activity in Swiss mouse assessed as inhibition of LPS-induced pleural accumulation in mononuclear cells at 1 to 100 ng/kg, ip pretreated for 1 hr followed by LPS stimulation and measured after 24 hrs by May-Grunwald-Giemsa staining-based Neubauer chamber based optical microscopy. In kind it is functional, organism-based.
For series [13], the system named is Mus musculus. Description: Anti-inflammatory activity in Swiss mouse assessed as inhibition of LPS-induced pleural accumulation in neutrophils at 1 to 100 ng/kg, ip pretreated for 1 hr followed by LPS stimulation and measured after 24 hrs by May-Grunwald-Giemsa staining-based Neubauer chamber based optical microscopy. The series is classed as functional, organism-based.

In series [14] the test system is Mus musculus. Description: Anti-inflammatory activity in Swiss mouse assessed as inhibition of LPS-induced protein extravasation in thoracic cavity at 100 ng/kg, ip pretreated for 1 hr followed by LPS stimulation and measured after 24 hrs. The series is classed as functional, organism-based.
Series [15] has as its target T3, P2X purinoceptor 7 (Mus musculus) (UniProt Q9Z1M0).
T3 sequence (whole entry): T2 sequence (Q9Z1M0 whole entry)
Description: Antagonist activity at mouse P2X7 receptor expressed in HEK293 cells assessed as inhibition of ATP-induced ethidium iodide uptake at 10 uM preincubated for 10 mins followed by ATP addition measured after 20 mins by FLIPR assay relative to 1 mM ATP. The series is classed as cell-based.

Series [16] concerns the target P2X purinoceptor 7 (Mus musculus) (UniProt Q9Z1M0). As to the kind of experiment: Antagonist activity at P2X7 receptor in Swiss mouse peritoneal macrophages assessed as inhibition of ATP-induced propidium iodide uptake at 10 uM after 30 mins by FLIPR assay relative to 1 mM ATP.
Series [17] has as its target T1, P2X purinoceptor 7. Description: Antagonist activity at human P2X7 receptor in PMA-differentiated THP-1 macrophages assessed as inhibition of ATP-induced IL-1beta release preincubated for 30 mins followed by ATP addition measured after 30 mins by ELISA. In general terms: In an ELISA, binding on a coated surface is turned into a signal by an enzyme label.

The structures appear in SMILES notation. Calls of active or inactive are those of the source. The calls are words filed in the database; no cut-off is given here. Some results are limits rather than exact numbers.

For `O=C(O)Cc1ccccc1Nc1c(Cl)cccc1Cl` [DICLOFENAC], the outcome in series [1] was Active. In addition, the outcome in [2] and in series [3] was inactive.

Regarding `CCOCc1cn(-c2ccc(Cl)cc2)nn1`, the IC50 (commonly the concentration that inhibits the measured activity by half) in series [4] was 0.0053 µM; in series [5], 0.0592 µM; in [17], 0.067 µM. In addition, in series [6], the microsomal CLint at 1 µM was determined as 22.2 µL/min/mg. Also, the Papp A→B (in general, how fast a substance crosses the layer from the apical side) at 1 h, 100 µM in series [7] came to 77.4 ×10⁻⁶ cm/s. Further, the solubility kinetic at 2 h in [8], in [9] and in series [10] was < 250 µM in each case. Besides, the ID50 in series [11] was determined as 0.06859 µg/kg. For the same molecule, the result in series [12] and in series [14] was Active. The result in series [13] was inactive. For the same molecule, in [15], the inhibition (in general, the relative decrease from the control value, in per cent) is “Active”. In addition, the inhibition in series [16] was found to be 84.7%.
